Results reported in publication PMC8041284, “Tunable Methacrylamides for Covalent Ligand Directed Release Chemistry” (Journal of the American Chemical Society, 2021).
Entries after “also recorded” stand apart in the source; their conditions may differ. Like-named read-outs stand apart in the source and are kept apart here. One block for each molecule: values may come before it.

Key:
[1] = GSH reactivity assay for model compounds (LC/MS); type: physicochemical; conditions: 100 μM 1i and 5 mM GSH in PBS buffer, pH 8, 37 °C (n = 3)
Mino cells = experiment: In-gel fluorescence activity-based profiling (in situ proteomic labeling); type: cell-based; conditions: Mino cells treated for 2 h, TAMRA-azide click
Procedure: Mino cells were treated for 2 h with either 0.1% DMSO or the indicated concentrations of IA-alkyne, 2a, 2b, and 2c. The cells were lysed with RIPA buffer (Sigma), and protein concentration was determined using the BCA protein assay (Thermo Fisher Scientific). Lysates were then diluted to 2 mg/mL in PBS and clicked to TAMRA-azide (click chemistry tools). Click reaction was performed using a final concentration of 40 μM TAMRA-azide, 3 mM CuSO4, 3 mM tris(3-hydroxypropyltriazolylmethyl)amine (THPTA, Sigma), and 3.7 mM sodium L-ascorbate (Sigma) in a final volume of 60 μL. The samples were incubated at 25 °C for 2 h. A 20 μL amount of 4× LDS sample buffer (NuPAGE, Thermo Fischer Scientific) was added followed by a 10 min incubation at 70 °C. The samples were then loaded on a 4–20% Bis-Tris gel (SurePAGE, GeneScript) and imaged using a Typhoon FLA 9500 scanner.

wild-type BTK = wild-type BTK (Homo sapiens, UniProt Q06187); experiment: In vitro kinase activity assay (Nanosyn)
BTK kinase domain = BTK kinase domain (Homo sapiens, UniProt Q06187); experiment: Kinetic labeling of BTK by intact protein LC/MS; type: binding
BLK = BLK (Homo sapiens, UniProt P51451); experiment: In vitro kinase activity assay (Nanosyn)
EGFR = EGFR (Homo sapiens, UniProt P00533); experiment: In vitro kinase activity assay (Nanosyn); type: biochemical; conditions: for IC50: rounded, 2 h preincubation, 5 μM ATP
ITK = biological target: T1, ITK (Homo sapiens, UniProt Q08881); experiment: In vitro kinase activity assay (Nanosyn)
T1 sequence (Q08881 1-620): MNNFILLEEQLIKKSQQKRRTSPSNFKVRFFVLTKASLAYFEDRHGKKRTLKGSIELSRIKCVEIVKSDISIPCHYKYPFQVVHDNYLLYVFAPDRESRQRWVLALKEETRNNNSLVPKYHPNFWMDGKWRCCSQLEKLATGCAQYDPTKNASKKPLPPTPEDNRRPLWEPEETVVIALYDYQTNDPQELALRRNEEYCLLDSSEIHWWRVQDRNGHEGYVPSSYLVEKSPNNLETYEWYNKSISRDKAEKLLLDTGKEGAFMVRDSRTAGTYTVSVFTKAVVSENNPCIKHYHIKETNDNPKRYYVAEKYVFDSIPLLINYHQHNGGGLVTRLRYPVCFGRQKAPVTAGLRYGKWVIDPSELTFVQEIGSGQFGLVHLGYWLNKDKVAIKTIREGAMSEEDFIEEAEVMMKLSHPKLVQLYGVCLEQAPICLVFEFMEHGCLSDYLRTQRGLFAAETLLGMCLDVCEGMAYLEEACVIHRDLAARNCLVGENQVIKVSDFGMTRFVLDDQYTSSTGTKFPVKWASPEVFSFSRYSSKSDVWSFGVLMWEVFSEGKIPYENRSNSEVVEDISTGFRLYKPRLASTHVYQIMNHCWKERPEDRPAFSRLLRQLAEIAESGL

primary mouse B cells = experiment: B-cell response experiment (anti-IgM activation, CD86 by flow cytometry); type: cell-based; conditions: representative FACS plot, concentration not given
ERBB2 = ERBB2 (Homo sapiens, UniProt P04626); experiment: In vitro kinase activity assay (Nanosyn)
BMX = biological target: T2, BMX (Homo sapiens, UniProt P51813); experiment: In vitro kinase activity assay (Nanosyn)
T2 sequence (P51813 1-675): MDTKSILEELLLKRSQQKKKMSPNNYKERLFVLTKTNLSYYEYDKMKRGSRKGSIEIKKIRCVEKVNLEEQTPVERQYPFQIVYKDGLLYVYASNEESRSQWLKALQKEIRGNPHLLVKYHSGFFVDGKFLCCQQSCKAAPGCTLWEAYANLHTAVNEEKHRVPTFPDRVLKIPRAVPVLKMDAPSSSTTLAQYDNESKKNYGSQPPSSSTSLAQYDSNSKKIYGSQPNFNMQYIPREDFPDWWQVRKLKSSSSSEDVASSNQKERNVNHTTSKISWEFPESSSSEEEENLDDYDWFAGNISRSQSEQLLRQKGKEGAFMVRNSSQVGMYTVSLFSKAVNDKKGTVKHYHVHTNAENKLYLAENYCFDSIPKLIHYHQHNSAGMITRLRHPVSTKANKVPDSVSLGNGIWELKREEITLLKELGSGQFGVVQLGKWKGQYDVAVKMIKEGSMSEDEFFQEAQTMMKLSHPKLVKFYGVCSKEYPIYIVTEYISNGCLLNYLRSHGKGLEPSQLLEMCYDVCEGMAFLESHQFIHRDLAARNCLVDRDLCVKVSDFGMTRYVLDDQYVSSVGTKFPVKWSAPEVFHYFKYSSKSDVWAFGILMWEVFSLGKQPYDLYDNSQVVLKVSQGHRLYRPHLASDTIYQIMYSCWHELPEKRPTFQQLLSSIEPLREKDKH

[2] = GSH reactivity assay for ibrutinib derivatives (LC/MS); type: physicochemical; conditions: 5 mM GSH in phosphate buffer/DMF 9:1, 100 μM compound, buffer pH 8.0:DMF 9:1, 37 °C
BSA = BSA (Bos taurus, UniProt P02769); experiment: Turn-on fluorescence selectivity control with BSA; type: binding; conditions: 10 μM BSA with 2 μM 3k
Excerpt: The fact that a specific leaving group is released as a function of selective binding of a target protein can be used to functionalize irreversible inhibitors, for example as turn-on fluorescent probes. To assess the applicability and generality of this approach, we chose three therapeutic targets for which acrylamide inhibitors are available: BTK, EGFR, and K-RAS^G12C as model systems. Initially, we treated 3k (Figure 6A) with BTK, measured the released coumarin fluorescence, and validated the labeling via LC/MS (Figure 6B,C). […] We could also […] the rate of the reaction by using 20:1 equiv of protein:probe (Figure S16). […] The release can also be inhibited by preincubation of BTK with iodoacetamide alkyne (IAA; Figure S17B).
Figure S17. […] A. 10 μM BSA with 2
B. 2 μM BTK fully labeled with IAA (red) compared to 2 μM non labeled BTK (blue) with 2 μM 3k. The lack of signal for the labeled BTK indicated the fluorescence is triggered by a free cysteine.
(1 picture or pasted object on this page, not shown here)

BTK [3] = biological target: T3, BTK (Homo sapiens, UniProt Q06187); experiment: Fluorescence intensity measurement of CoLDR turn-on probe; type: binding; conditions: 2 μM probe, 2 μM BTK
BTK [4] = biological target: T3, BTK; experiment: Chemiluminescence emission of probe 3l with BTK; conditions: 2 μM probe, 2 μM BTK
BTK [5] = biological target: T3, BTK; experiment: biochemical; conditions: read-out: BTK inhibition (%), 0.75 uM BTK, […] probe 3l, 15 min preincubation
BTK [6] = biological target: T3, BTK; experiment: HTS with the chemiluminescent probe 3l (%BTK binding inhibition); conditions: 10 μM compound, 0.75 μM BTK
BTK [7] = biological target: T3, BTK; conditions: 0.75 uM BTK, […] probe 3l, 15 min preincubation, 10 µM, inhibitor, BTK inhibition (%)
BTK [8] = biological target: T3, BTK; experiment: biochemical; design: HTS: BTK preincubated 15 min with compound, then chemiluminescent covalent probe 3l; loss of luminescence at 30 min; conditions: 0.75 uM BTK, 1.5 uM probe 3l, 15 min preincubation
[9] = BTK IC50, 0.6 nM BTK, 5 μM ATP, Figure 4C
[10] = BTK IC50, in vitro kinase activity assay
[11] = BTK IC50, rounded, 2 h preincubation, 5 μM ATP

Chain of BLK (P51451 whole entry, species assumed): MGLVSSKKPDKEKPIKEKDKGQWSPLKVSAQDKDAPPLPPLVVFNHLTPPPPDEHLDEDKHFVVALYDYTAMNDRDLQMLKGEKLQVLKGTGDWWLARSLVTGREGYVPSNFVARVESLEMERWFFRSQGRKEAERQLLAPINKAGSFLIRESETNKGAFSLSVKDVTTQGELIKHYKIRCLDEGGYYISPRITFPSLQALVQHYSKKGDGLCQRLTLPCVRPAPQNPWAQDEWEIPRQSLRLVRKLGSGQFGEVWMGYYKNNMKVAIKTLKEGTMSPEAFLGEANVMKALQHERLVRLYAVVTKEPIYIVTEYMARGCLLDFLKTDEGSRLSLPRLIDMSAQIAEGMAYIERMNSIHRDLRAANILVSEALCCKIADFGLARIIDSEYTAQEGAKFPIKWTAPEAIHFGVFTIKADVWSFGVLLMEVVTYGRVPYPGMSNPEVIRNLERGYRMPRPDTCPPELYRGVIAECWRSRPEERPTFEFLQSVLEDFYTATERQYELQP
T3 sequence (Q06187 402-655 limits assumed): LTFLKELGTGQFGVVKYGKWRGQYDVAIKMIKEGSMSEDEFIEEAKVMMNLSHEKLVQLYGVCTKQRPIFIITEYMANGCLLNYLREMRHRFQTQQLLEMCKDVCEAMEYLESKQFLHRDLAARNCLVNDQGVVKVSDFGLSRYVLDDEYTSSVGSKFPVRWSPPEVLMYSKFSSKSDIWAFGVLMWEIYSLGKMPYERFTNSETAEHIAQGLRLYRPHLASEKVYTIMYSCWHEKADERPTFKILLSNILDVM
Chain of ERBB2 (P04626 23-1255, species assumed): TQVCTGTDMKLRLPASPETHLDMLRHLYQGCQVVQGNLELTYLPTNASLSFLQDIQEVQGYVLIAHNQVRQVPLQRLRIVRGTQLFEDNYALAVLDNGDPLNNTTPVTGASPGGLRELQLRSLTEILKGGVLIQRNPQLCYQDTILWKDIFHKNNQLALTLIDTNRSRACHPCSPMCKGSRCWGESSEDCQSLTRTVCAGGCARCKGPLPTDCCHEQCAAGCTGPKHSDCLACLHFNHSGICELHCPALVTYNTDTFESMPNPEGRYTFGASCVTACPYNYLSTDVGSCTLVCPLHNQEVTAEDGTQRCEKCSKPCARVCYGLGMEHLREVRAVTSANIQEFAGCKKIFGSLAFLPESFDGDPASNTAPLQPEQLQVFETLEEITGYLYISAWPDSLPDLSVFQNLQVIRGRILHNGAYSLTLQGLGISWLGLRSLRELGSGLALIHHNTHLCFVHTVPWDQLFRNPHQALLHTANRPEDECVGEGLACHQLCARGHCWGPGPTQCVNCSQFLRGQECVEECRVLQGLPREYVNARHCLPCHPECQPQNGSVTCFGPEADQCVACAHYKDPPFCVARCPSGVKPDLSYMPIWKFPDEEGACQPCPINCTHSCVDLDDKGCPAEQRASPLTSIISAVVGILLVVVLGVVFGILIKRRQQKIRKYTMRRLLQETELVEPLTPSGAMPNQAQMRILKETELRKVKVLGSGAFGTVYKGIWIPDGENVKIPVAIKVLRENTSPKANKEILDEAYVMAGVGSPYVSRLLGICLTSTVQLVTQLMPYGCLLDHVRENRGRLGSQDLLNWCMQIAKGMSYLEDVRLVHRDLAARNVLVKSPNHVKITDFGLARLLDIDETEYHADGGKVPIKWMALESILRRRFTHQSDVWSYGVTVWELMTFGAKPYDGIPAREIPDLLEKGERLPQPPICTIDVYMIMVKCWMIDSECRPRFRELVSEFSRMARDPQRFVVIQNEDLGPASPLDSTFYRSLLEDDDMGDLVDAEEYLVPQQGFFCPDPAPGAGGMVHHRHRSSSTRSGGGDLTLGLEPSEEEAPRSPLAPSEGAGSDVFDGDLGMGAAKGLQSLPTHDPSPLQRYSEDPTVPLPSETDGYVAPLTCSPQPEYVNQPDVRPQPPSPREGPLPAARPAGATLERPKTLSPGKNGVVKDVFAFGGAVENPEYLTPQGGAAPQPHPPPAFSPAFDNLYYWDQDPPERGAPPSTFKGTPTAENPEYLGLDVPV
Chain of wild-type BTK (Q06187 whole entry, the tested form may be a part): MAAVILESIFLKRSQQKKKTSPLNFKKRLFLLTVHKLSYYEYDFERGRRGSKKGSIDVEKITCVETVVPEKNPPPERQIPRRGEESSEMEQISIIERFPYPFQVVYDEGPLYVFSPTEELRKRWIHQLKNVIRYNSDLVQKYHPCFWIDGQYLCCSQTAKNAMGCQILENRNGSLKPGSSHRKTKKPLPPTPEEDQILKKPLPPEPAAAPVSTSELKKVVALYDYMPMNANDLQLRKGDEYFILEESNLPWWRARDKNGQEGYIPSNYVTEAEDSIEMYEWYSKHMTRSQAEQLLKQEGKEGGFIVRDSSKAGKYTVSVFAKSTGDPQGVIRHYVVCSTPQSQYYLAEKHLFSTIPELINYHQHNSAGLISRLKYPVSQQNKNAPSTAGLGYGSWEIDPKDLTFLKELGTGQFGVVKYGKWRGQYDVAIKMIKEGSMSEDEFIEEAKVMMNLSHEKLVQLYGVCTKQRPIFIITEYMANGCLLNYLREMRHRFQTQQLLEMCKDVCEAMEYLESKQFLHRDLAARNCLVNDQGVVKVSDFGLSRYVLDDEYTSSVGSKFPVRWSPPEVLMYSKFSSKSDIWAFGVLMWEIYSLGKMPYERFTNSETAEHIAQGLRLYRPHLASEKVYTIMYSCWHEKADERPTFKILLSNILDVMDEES
Chain of EGFR (P00533 25-1210): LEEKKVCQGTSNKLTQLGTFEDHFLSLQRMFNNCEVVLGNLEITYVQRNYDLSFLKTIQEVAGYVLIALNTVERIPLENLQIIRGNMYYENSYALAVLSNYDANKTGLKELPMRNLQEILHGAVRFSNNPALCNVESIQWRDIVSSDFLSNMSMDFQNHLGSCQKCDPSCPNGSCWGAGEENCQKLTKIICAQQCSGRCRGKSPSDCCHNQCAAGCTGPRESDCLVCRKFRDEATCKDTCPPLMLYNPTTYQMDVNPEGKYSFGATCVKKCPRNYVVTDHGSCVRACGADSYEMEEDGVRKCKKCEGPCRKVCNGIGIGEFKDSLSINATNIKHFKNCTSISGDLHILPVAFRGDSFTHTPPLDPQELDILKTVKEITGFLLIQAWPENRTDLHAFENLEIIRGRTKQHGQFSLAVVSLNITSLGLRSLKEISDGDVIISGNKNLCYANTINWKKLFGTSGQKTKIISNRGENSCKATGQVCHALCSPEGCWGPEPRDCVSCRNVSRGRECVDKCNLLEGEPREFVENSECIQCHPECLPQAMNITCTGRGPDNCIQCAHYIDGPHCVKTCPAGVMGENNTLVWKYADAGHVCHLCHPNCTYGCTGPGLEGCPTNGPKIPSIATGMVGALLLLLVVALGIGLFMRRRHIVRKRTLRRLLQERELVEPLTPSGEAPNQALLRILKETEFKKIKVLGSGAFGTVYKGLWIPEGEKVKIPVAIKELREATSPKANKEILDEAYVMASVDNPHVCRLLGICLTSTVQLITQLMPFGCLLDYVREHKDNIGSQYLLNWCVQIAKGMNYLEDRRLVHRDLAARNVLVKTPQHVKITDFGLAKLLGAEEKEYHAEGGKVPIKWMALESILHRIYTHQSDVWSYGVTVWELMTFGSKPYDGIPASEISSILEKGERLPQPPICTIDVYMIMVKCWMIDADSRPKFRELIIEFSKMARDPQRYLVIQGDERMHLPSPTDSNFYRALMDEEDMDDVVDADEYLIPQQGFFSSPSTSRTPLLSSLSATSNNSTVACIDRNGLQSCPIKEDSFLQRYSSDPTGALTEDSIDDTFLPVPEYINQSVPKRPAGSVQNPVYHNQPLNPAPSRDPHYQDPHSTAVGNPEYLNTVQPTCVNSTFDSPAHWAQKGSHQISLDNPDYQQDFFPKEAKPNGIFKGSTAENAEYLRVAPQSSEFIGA
Chain of BTK kinase domain (Q06187 402-655 limits assumed): as the sequence (Q06187 402-655 limits assumed) above
Chain of BSA (P02769 25-607): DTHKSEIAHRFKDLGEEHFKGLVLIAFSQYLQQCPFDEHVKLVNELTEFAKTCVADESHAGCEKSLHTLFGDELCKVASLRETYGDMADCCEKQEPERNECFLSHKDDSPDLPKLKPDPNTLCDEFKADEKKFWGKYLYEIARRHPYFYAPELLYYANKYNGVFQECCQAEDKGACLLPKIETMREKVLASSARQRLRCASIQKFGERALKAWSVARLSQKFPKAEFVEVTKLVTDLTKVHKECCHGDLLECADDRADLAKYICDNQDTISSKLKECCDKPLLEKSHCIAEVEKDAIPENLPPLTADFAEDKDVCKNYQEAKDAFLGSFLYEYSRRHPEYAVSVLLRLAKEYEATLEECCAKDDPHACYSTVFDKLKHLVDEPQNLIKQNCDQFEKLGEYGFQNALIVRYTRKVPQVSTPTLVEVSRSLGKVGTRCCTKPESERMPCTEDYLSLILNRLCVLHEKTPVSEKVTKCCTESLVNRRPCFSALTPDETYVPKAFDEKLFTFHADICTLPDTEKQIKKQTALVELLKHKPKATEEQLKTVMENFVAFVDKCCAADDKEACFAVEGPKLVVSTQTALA

Structure (SMILES): C=C(COc1ccc2ccc(=O)oc2c1)C(=O)NCc1ccccc1 [1i]
rate of depletion of 1i, k [1]: 0.24 h⁻¹ | rate of formation of coumarin, k [1]: 0.24 h⁻¹

Structure (SMILES): C#CCCNC(=O)C(=C)COc1ccc2ccc(=O)oc2c1 [2a]
in situ proteomic labeling (in-gel fluorescence) (Mino cells): labeled more proteins compared to 2b

Structure (SMILES): C#CCCNC(=O)C(=C)CN(C)c1ccccc1 [2c]
in situ proteomic labeling (in-gel fluorescence) (Mino cells): completely inactive

Structure (SMILES): C=C(C)C(=O)N1CCC[C@@H](n2nc(-c3ccc(Oc4ccccc4)cc3)c3c(N)ncnc32)C1 [3a]
IC50 (wild-type BTK; [9]): 12.2 nM

Structure (SMILES): C=C(CN1CCCCC1)C(=O)N1CCC[C@@H](n2nc(-c3ccc(Oc4ccccc4)cc3)c3c(N)ncnc32)C1 [3c]
BTK labeling mechanism (BTK kinase domain): exclusively through addition with no substitution product | IC50 (BLK): 0.1 nM | IC50 (EGFR): 7 nM | IC50 (ITK): 43 nM | B220+ cells-activated (CD86 positive) (primary mouse B cells): 81.6% | IC50 (ERBB2): 33 nM | IC50 (BMX): 0.3 nM | IC50 (wild-type BTK; [10]): < 0.1 nM | IC50 (wild-type BTK; [11]): 0.1 nM

Structure (SMILES): C=C(CN(C)c1ccccc1)C(=O)N1CCC[C@@H](n2nc(-c3ccc(Oc4ccccc4)cc3)c3c(N)ncnc32)C1 [3d]
half-life at 100 μM [2]: > 100 h | IC50 (wild-type BTK): 5.6 nM

Structure (SMILES): C=C(CNCc1ccccc1)C(=O)N1CCC[C@@H](n2nc(-c3ccc(Oc4ccccc4)cc3)c3c(N)ncnc32)C1 [3e]
BTK labeling mechanism (BTK kinase domain): exclusively through addition with no substitution product | IC50 (BLK): 0.1 nM | BLK/BTK (BLK; selectivity ratio of IC50): 1 | IC50 (EGFR): 3 nM | EGFR/BTK (EGFR; selectivity ratio of IC50): 36 | half-life at 100 μM [2]: > 100 h | IC50 (ITK): 30 nM | ITK/BTK (ITK; selectivity ratio of IC50): 383 | B220+ cells-activated (CD86 positive) (primary mouse B cells): 77.3% | IC50 (ERBB2): 13 nM | ERBB2/BTK (ERBB2; selectivity ratio of IC50): 169 | IC50 (BMX): 0.4 nM | BMX/BTK (BMX; selectivity ratio of IC50): 5 | IC50 (wild-type BTK; [10]): < 0.1 nM | IC50 (wild-type BTK; [11]): 0.1 nM

Structure (SMILES): C=C(COC(C)=O)C(=O)N1CCC[C@@H](n2nc(-c3ccc(Oc4ccccc4)cc3)c3c(N)ncnc32)C1 [3h]
IC50 (BLK): 0.6 nM | IC50 (EGFR): 28 nM | IC50 (ITK): 295 nM | B220+ cells-activated (CD86 positive) (primary mouse B cells): 82.9% | IC50 (ERBB2): 196 nM | IC50 (BMX): 0.3 nM | IC50 (wild-type BTK; [10]): < 0.1 nM | IC50 (wild-type BTK; [11]): 0.1 nM

Structure (SMILES): C=C(COC(=O)OC)C(=O)N1CCC[C@@H](n2nc(-c3ccc(Oc4ccccc4)cc3)c3c(N)ncnc32)C1 [3i]
IC50 (BLK): 0.8 nM | IC50 (EGFR): 31 nM | IC50 (ITK): 232 nM | B220+ cells-activated (CD86 positive) (primary mouse B cells): 85.0% | IC50 (ERBB2): 172 nM | IC50 (BMX): 0.4 nM

Structure (SMILES): C=C(COc1ccc2ccc(=O)oc2c1)C(=O)N1CCC[C@@H](n2nc(-c3ccc(Oc4ccccc4)cc3)c3c(N)ncnc32)C1 [3k]
turn-on fluorescence with BSA (BSA): no reaction; also recorded: does not result in increased fluorescence | increase of fluorescence intensity at 435 nm upon addition of BTK (BTK [3]): 30 fold | time to saturation of fluorescence (BTK [3]): ≤ 10 min | IC50 (wild-type BTK; [9]): 1 nM

Structure (SMILES): C=C(COc1c(/C=C/C(=O)OC)ccc(C2(OC)OOC23C2CC4CC(C2)CC3C4)c1Cl)C(=O)N1CCC[C@@H](n2nc(-c3ccc(Oc4ccccc4)cc3)c3c(N)ncnc32)C1 (stereo partly shown) [3l]
chemiluminescence enhancement by BTK (total photon counts vs probe alone) (BTK [4]): 90 fold | time to maximum chemiluminescence signal (BTK [4]): ≤ 20 min

Structure (SMILES): CC[C@]12C=CCN3CC[C@]4(C(=C(C(=O)OC)C1)Nc1ccccc14)[C@@H]32 [PCM-0215925]
BTK inhibition (%) (BTK [7]): 13.9% | inhibition at 10 µM (BTK [5]): 10.8%

Structure (SMILES): CC(C)[C@]12O[C@H]1[C@@H]1O[C@@]13[C@@]1(C)CCC4=C(COC4=O)[C@@H]1C[C@@H]1O[C@@]13C2=O [PCM-0216318]
inhibition at 10 µM (BTK [8]): -26.3%

Structure (SMILES): C[C@]12CC[C@H](O)C[C@@]1(O)CC[C@@H]1[C@@H]2CC[C@]2(C)[C@@H](C3=CC(=O)OC3)CC[C@]12O [PCM-0216443]
inhibition at 10 µM (BTK [8]): 6.2%

Structure (SMILES): C=CC(=O)N1CCC[C@@H](n2nc(-c3ccc(Oc4ccccc4)cc3)c3c(N)ncnc32)C1 [ibrutinib, reference compound]
B220+ cells-activated (CD86 positive) (primary mouse B cells): 81.2%

Second part, the molecule after the results:

inhibition at 10 µM (BTK [5]): 133% | BTK inhibition (%) (BTK [6]): 133.1%
Structure (SMILES): COc1c/c(=C2\C=c3ccccc3=N2)[nH]/c1=C\c1[nH]c(C)cc1C [PCM-0094986]

inhibition at 10 µM (BTK [5]): 125% | BTK inhibition (%) (BTK [6]): 125.3%
Structure (SMILES): Cc1cc(-c2ccc(N=Nc3ccc4c(S(=O)(=O)O)cc(S(=O)(=O)O)c(N)c4c3O)c(C)c2)ccc1N=Nc1ccc2c(S(=O)(=O)O)cc(S(=O)(=O)O)c(N)c2c1O [PCM-0214845]

BTK inhibition (%) (BTK [7]): 13.2% | inhibition at 10 µM (BTK [5]): 7%
Structure (SMILES): CCOc1ccccc1OCCN[C@H](C)Cc1ccc(OC)c(S(N)(=O)=O)c1 [PCM-0214853]

BTK inhibition (%) (BTK [7]): 17.8% | inhibition at 10 µM (BTK [5]): 21.4%
Structure (SMILES): COc1cc2c3cc1Oc1c(OC)c(OC)cc4c1[C@@H](Cc1ccc(O)c(c1)Oc1ccc(cc1)C[C@@H]3N(C)CC2)N(C)CC4 [PCM-0214866]
